{"source": "patent US7897620B2", "about": "“Methods of using anti-inflammatory compounds” (Cambridge Enterprise Limited, priority 2007, dated 2011)", "key": {"[1]": {"assay": "Pharmacokinetics following a single dose in rat (LC-MS/MS of blood, one-compartment model)", "assay_type": "in vivo", "conditions": "single oral dose", "procedure": "Compounds were administered as a single dose (either 1 mg/kg bodyweight in 5% DMSO via the intravenous route or 3 mg/kg in 1% carboxymethylcellulose via the oral route) to three adult rats (using different rats for each compound and each route of administration).\nBlood was then sampled at various time points (including just prior to dose administration) out to 24 hrs post dose, and the level of the various compounds was assessed using a validated LC-MS/MS assay. Briefly, 3-5 μl of the deproteinised sample was applied to a Waters Atlantis (C18 20×2.1 mm, 3 μm bead size) reverse phase chromatography column equilibrated in 0.1% formic acid in 95:5 water:actetonitrile. Over 3.5 minutes bound material was gradient eluted reaching 0.1% formic acid in 5:95 water:acetonitrile, followed by a step gradient back to 0.1% formic acid in 95:5 water:acetonitrile. The column eluent was then directed to an Applied Biosystems API 4000/3200 QTrap MS/MS mass spectrometer, with a Turbolonspray™ ion source operating in positive ion mode. The interface temperature was set at 650° C., with a 40 ms dwell time for each MRM transition, monitoring the following ions:\nThe internal standard in each determination was the related compound (S)-3-(2′,2′-dimethylpropanoylamino)-caprolactam, which was spiked into the sample prior to deproteinization. The lower limit of quantitation (LLOQ) for this assay was 2.4 ng/ml for each compound except (I′), where it was 38.1 ng/ml.\nFollowing LC-MS/MS analysis of each collected sample, the pharmacokinetic disposition of the compound was modelled using Kinetica software, a well known software package for such applications."}, "[2]": {"assay": "Water solubility (observation)", "assay_type": "physicochemical"}, "[3]": {"system": "chemokine-induced migration", "assay": "BSCI activity in vitro, chemokine-induced migration (general statements)", "assay_type": "cell-based", "conditions": "prior art peptides compared"}, "[4]": {"assay": "Potency in vivo, model not stated", "conditions": "prior art peptides compared"}, "[5]": {"conditions": "in vivo, cited from earlier work"}}}
{"compound": "CC(C)(C)C(=O)NC1CCCNC1=O", "note": "(stereo not drawn) [Compound (I), 3-(2′,2′-dimethylpropanoylamino)-tetrahydropyridin-2-one]", "values": [{"measurement": "exposure following a single oral dose, fold higher than the other lactam BSCIs tested", "setting": "[1]", "result": "more than 10 fold"}, {"measurement": "water solubility", "setting": "[2]", "result": "significant water solubility"}]}
{"compound": "c(DCys-DGln-DIle-DTrp-DLys-DGln-DLys-DPro-DAsp-DLeu-DCys)-NH2 [NR58-3.14.3]", "values": [{"measurement": "fold less potent in vitro", "setting": "[3]", "result": "> 25", "unit": "fold"}, {"measurement": "fold less potent in vivo", "setting": "[4]", "result": "> 10,000 fold"}, {"measurement": "half-life period of clearance from blood plasma", "setting": "[5]; iv", "result": "less than 30 minutes"}, {"measurement": "oral bioavailability", "setting": "[5]; po", "result": "not orally bioavailable"}]}
